# Source: the NIST ThermoML archive (doi:10.1016/j.jct.2012.12.003)
# Values joined by “and” are separate entries in the source; they are usually repeats but may differ in a detail not shown here. Equal entries are not always repeated. ± gives the expanded uncertainty stated by the source.
# Columns and labels:
# [1] = 101.3 kPa, Liquid, Vibrating tube method
# [2] = xn = mol fraction of the nth substance listed; conditions: 101.3 kPa, Liquid, Vibrating tube method
compound,measurement,setting,value
"CC(O)CO (configuration not stated) [1,2-propanediol]",mass density,[1]; 293.15 K,1036.21 ± 0.14 kg/m3 [middle of 4 runs]
same,mass density,[1]; 298.15 K,1032.55 ± 0.13 kg/m3 [middle of 4 runs]
same,mass density,[1]; 303.15 K,1028.84 ± 0.13 kg/m3 [middle of 4 runs]
same,mass density,[1]; 308.15 K,1025.09 ± 0.13 kg/m3 and 1025.1 ± 0.13 kg/m3 and 1025.05 ± 0.13 kg/m3
same,mass density,[1]; 313.15 K,1021.28 ± 0.13 kg/m3 and 1021.31 ± 0.13 kg/m3
same,mass density,[1]; 318.15 K,1017.47 ± 0.13 kg/m3 and 1017.49 ± 0.13 kg/m3
"CC(O)CO (configuration not stated) [1,2-propanediol] + CCCCCCCCCO",mass density,"[2]; 293.15 K, x1 = 1",1036.17 ± 0.14 kg/m3
same,mass density,"[2]; 298.15 K, x1 = 1",1032.52 ± 0.13 kg/m3
same,mass density,"[2]; 303.15 K, x1 = 1",1028.83 ± 0.13 kg/m3
same,mass density,"[2]; 308.15 K, x1 = 1",1025.09 ± 0.13 kg/m3
same,mass density,"[2]; 313.15 K, x1 = 1",1021.31 ± 0.13 kg/m3
same,mass density,"[2]; 318.15 K, x1 = 1",1017.49 ± 0.13 kg/m3
"CC(O)CO (configuration not stated) [1,2-propanediol] + CCCCCCCCO",mass density,"[2]; 293.15 K, x1 = 0.1028",834.904 ± 0.23 kg/m3
same,mass density,"[2]; 293.15 K, x1 = 0.1938",844.743 ± 0.21 kg/m3
same,mass density,"[2]; 293.15 K, x1 = 0.3029",858.314 ± 0.2 kg/m3
same,mass density,"[2]; 293.15 K, x1 = 0.3929",871.118 ± 0.19 kg/m3
same,mass density,"[2]; 293.15 K, x1 = 0.5181",892.06 ± 0.18 kg/m3
same,mass density,"[2]; 293.15 K, x1 = 0.6002",908.213 ± 0.17 kg/m3
same,mass density,"[2]; 293.15 K, x1 = 0.7012",931.472 ± 0.16 kg/m3
same,mass density,"[2]; 293.15 K, x1 = 0.8016",959.327 ± 0.15 kg/m3
same,mass density,"[2]; 293.15 K, x1 = 0.901",993.344 ± 0.14 kg/m3
same,mass density,"[2]; 293.15 K, x1 = 1",1036.22 ± 0.14 kg/m3
same,mass density,"[2]; 298.15 K, x1 = 0.1028",831.409 ± 0.23 kg/m3
same,mass density,"[2]; 298.15 K, x1 = 0.1938",841.209 ± 0.21 kg/m3
same,mass density,"[2]; 298.15 K, x1 = 0.3029",854.74 ± 0.2 kg/m3
same,mass density,"[2]; 298.15 K, x1 = 0.3929",867.513 ± 0.19 kg/m3
same,mass density,"[2]; 298.15 K, x1 = 0.5181",888.414 ± 0.18 kg/m3
same,mass density,"[2]; 298.15 K, x1 = 0.6002",904.545 ± 0.17 kg/m3
same,mass density,"[2]; 298.15 K, x1 = 0.7012",927.781 ± 0.16 kg/m3
same,mass density,"[2]; 298.15 K, x1 = 0.8016",955.627 ± 0.15 kg/m3
same,mass density,"[2]; 298.15 K, x1 = 0.901",989.648 ± 0.14 kg/m3
same,mass density,"[2]; 298.15 K, x1 = 1",1032.56 ± 0.13 kg/m3
same,mass density,"[2]; 303.15 K, x1 = 0.1028",827.891 ± 0.23 kg/m3
same,mass density,"[2]; 303.15 K, x1 = 0.1938",837.652 ± 0.21 kg/m3
same,mass density,"[2]; 303.15 K, x1 = 0.3029",851.144 ± 0.2 kg/m3
same,mass density,"[2]; 303.15 K, x1 = 0.3929",863.884 ± 0.19 kg/m3
same,mass density,"[2]; 303.15 K, x1 = 0.5181",884.743 ± 0.18 kg/m3
same,mass density,"[2]; 303.15 K, x1 = 0.6002",900.85 ± 0.17 kg/m3
same,mass density,"[2]; 303.15 K, x1 = 0.7012",924.062 ± 0.16 kg/m3
same,mass density,"[2]; 303.15 K, x1 = 0.8016",951.891 ± 0.15 kg/m3
same,mass density,"[2]; 303.15 K, x1 = 0.901",985.914 ± 0.14 kg/m3
same,mass density,"[2]; 303.15 K, x1 = 1",1028.85 ± 0.13 kg/m3
same,mass density,"[2]; 308.15 K, x1 = 0.1028",824.351 ± 0.23 kg/m3
same,mass density,"[2]; 308.15 K, x1 = 0.1938",834.08 ± 0.21 kg/m3
same,mass density,"[2]; 308.15 K, x1 = 0.3029",847.528 ± 0.2 kg/m3
same,mass density,"[2]; 308.15 K, x1 = 0.3929",860.235 ± 0.19 kg/m3
same,mass density,"[2]; 308.15 K, x1 = 0.5181",881.051 ± 0.18 kg/m3
same,mass density,"[2]; 308.15 K, x1 = 0.6002",897.13 ± 0.17 kg/m3
same,mass density,"[2]; 308.15 K, x1 = 0.7012",920.315 ± 0.16 kg/m3
same,mass density,"[2]; 308.15 K, x1 = 0.8016",948.124 ± 0.15 kg/m3
same,mass density,"[2]; 308.15 K, x1 = 0.901",982.15 ± 0.14 kg/m3
same,mass density,"[2]; 308.15 K, x1 = 1",1025.1 ± 0.13 kg/m3
same,mass density,"[2]; 313.15 K, x1 = 0.1028",820.793 ± 0.23 kg/m3
same,mass density,"[2]; 313.15 K, x1 = 0.1938",830.481 ± 0.22 kg/m3
same,mass density,"[2]; 313.15 K, x1 = 0.3029",843.885 ± 0.2 kg/m3
same,mass density,"[2]; 313.15 K, x1 = 0.3929",856.562 ± 0.19 kg/m3
same,mass density,"[2]; 313.15 K, x1 = 0.5181",877.332 ± 0.18 kg/m3
same,mass density,"[2]; 313.15 K, x1 = 0.6002",893.39 ± 0.17 kg/m3
same,mass density,"[2]; 313.15 K, x1 = 0.7012",916.543 ± 0.16 kg/m3
same,mass density,"[2]; 313.15 K, x1 = 0.8016",944.333 ± 0.15 kg/m3
same,mass density,"[2]; 313.15 K, x1 = 0.901",978.349 ± 0.14 kg/m3
same,mass density,"[2]; 313.15 K, x1 = 1",1021.31 ± 0.13 kg/m3
same,mass density,"[2]; 318.15 K, x1 = 0.1028",817.208 ± 0.23 kg/m3
same,mass density,"[2]; 318.15 K, x1 = 0.1938",826.859 ± 0.22 kg/m3
same,mass density,"[2]; 318.15 K, x1 = 0.3029",840.223 ± 0.2 kg/m3
same,mass density,"[2]; 318.15 K, x1 = 0.3929",852.864 ± 0.19 kg/m3
same,mass density,"[2]; 318.15 K, x1 = 0.5181",873.592 ± 0.18 kg/m3
same,mass density,"[2]; 318.15 K, x1 = 0.6002",889.619 ± 0.17 kg/m3
same,mass density,"[2]; 318.15 K, x1 = 0.7012",912.743 ± 0.16 kg/m3
same,mass density,"[2]; 318.15 K, x1 = 0.8016",940.506 ± 0.15 kg/m3
same,mass density,"[2]; 318.15 K, x1 = 0.901",974.513 ± 0.14 kg/m3
same,mass density,"[2]; 318.15 K, x1 = 1",1017.49 ± 0.13 kg/m3
